Measurements reported in US20230407243A1, “GENETIC PLATFORM TO INVESTIGATE THE FUNCTIONS OF BACTERIAL DRUG EFFLUX PUMPS” (priority 2022, published 2023).
Read-outs that look alike come from different tables or passages of the source.

Experiments:
Assay type in all cases: cell-based, Escherichia coli
[1] = test system: EKO-35 araC::acrBD408A; assay: MIC susceptibility profiling, efflux platform; details: for Fold change of MICs: EKO-35 araC::acrBD408A compared to EKO-35
Outline: (§1)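 Turbidity (OD600, pre-incubation subtracted) defined growth after 18 h at 37 °C in MHB II. The inoculum was diluted 1/2000 from an OD600 ~1.0 PBS suspension of an overnight LB culture. Compounds were run as duplicate twofold dilutions.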

[2] = test system: EKO-35 araC::macAB; assay: MIC susceptibility profiling, efflux platform; details: for Fold change of MICs: EKO-35 araC::macAB compared to EKO-35
Outline: as §1

[3] = test system: EKO-35 araC::acrEF; assay: MIC susceptibility profiling, efflux platform; details: for Fold change of MICs: EKO-35 araC::acrEF compared to EKO-35
Outline: as §1

[4] = test system: EKO-35 araC::emrKY; assay: MIC susceptibility profiling, efflux platform; details: for Fold change of MICs: EKO-35 araC::emrKY compared to EKO-35
Outline: as §1

[5] = test system: EKO-35 araC::mdtEF; assay: MIC susceptibility profiling, efflux platform; details: for Fold change of MICs: EKO-35 araC::mdtEF compared to EKO-35
Outline: as §1

[6] = test system: EKO-35 araC::emrAB; assay: MIC susceptibility profiling, efflux platform; details: for Fold change of MICs: EKO-35 araC::emrAB compared to EKO-35
Outline: as §1

[7] = test system: ΔtolC-Pore; assay: microbe, parasite or virus in culture; details: for Minimum inhibitory concentration (MIC), Pore ΔtolC: Table 10, with pore
Outline: (§2)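 Strains carry the fhuA ΔC/Δ4L pore integrated between glmS and pstS under a constitutive promoter, with pore activity checked by vancomycin susceptibility. Overnight LB cultures were adjusted in PBS pH 7.4 to OD600 ~1.0 and diluted 1/2000 into MHB II. 2-fold compound titrations were read by OD600 after 18 h at 37 °C.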

[8] = test system: wild-type (WT) K-12-Pore; assay: microbe, parasite or virus in culture; details: technical duplicate; for MIC: Escherichia coli
Outline: as §2

[9] = test system: EKO-35 araC::emrKY Pore; assay: MIC susceptibility profiling, porinated efflux platform; details: for Fold changes of MICs: EKO-35 araC::emrKY Pore compared to EKO-35-Pore
Outline: as §2

[10] = test system: EKO-35 araC::emrAB Pore; assay: as above; details: for Fold changes of MICs: EKO-35 araC::emrAB Pore compared to EKO-35-Pore
Outline: as §2

[11] = test system: EKO-35 araC::acrB Pore; assay: as above; details: for Fold changes of MICs: EKO-35 araC::acr-B Pore compared to EKO-35-Pore
Outline: as §2

[12] = test system: EKO-35 araC::acrD Pore; assay: as above; details: for Fold changes of MICs: EKO-35 araC::acrD Pore compared to EKO-35-Pore
Outline: as §2

[13] = test system: EKO-35 araC::macAB Pore; assay: as above; details: for Fold changes of MICs: EKO-35 araC::macAB Pore compared to EKO-35-Pore
Outline: as §2

[14] = test system: EKO-35 araC::mexCD Pore; assay: as above; details: for Fold changes of MICs: EKO-35 araC::mexCD Pore compared to EKO-35-Pore
Outline: as §2

[15] = test system: EKO-35 araC::mdtEF Pore; assay: as above; details: for Fold changes of MICs: EKO-35 araC::mdtEF Pore compared to EKO-35-Pore
Outline: as §2

[16] = test system: EKO-35 araC::acrBD408A Pore; assay: as above; details: for Fold changes of MICs: EKO-35 araC::acrBD408A Pore compared to EKO-35-Pore
Outline: as §2

[17] = test system: EKO-35 araC::mdtBC Pore; assay: as above; details: for Fold changes of MICs: EKO-35 araC::mdtBC Pore compared to EKO-35-Pore
Outline: as §2

[18] = test system: EKO-35 araC::acrEF Pore; assay: as above
Outline: as §2

[19] = Table 13B, non-porinated, technical duplicate
[20] = Table 13A, non-porinated, technical duplicate
[21] = Table 14A, porinated, technical duplicate

O=C(NC(=O)N1CCc2c([nH]c3ccccc23)C1C(F)(F)F)c1ccccc1 (stereo not drawn) [compound 13]
Fold change of MICs [1]: 1 fold
Minimum Inhibitory Concentration, EKO-35 araC::acrBD408A [1, 19]: 40 µg/mL
Fold change of MICs [2]: 1 fold
Minimum Inhibitory Concentration, EKO-35 araC::macAB [2, 19]: 40 µg/mL
Fold change of MICs [3]: 8 fold
Minimum Inhibitory Concentration, EKO-35 araC::acrEF [3, 20]: 320 µg/mL
Fold change of MICs [4]: 1 fold
Minimum Inhibitory Concentration, EKO-35 araC::emrKY [4, 19]: 40 µg/mL
Fold change of MICs [5]: 8 fold
Minimum Inhibitory Concentration, EKO-35 araC::mdtEF [5, 20]: 320 µg/mL
Fold change of MICs [6]: 8 fold
Minimum Inhibitory Concentration, EKO-35 araC::emrAB [6, 19]: 320 µg/mL
Minimum inhibitory concentration (MIC), Pore ΔtolC ([7]; technical duplicate): 1.25 µg/mL
Minimum inhibitory concentration, ΔtolC-Pore [7, 21]: 1.25 µg/mL
Minimum inhibitory concentration (MIC), Pore K-12 ([8]; Table 10, with pore): 320 µg/mL
Minimum inhibitory concentration, K-12 (WT)-Pore ([8]; Table 14A, porinated): 320 µg/mL
Fold changes of MICs [9]: 1 fold
Minimum inhibitory concentration ([9]; EKO-35 araC::emrKY Pore, technical duplicate): 2.5 µg/mL
Fold changes of MICs [10]: 2 fold
Minimum inhibitory concentration ([10]; EKO-35 araC::emrAB Pore, technical duplicate): 10 µg/mL
Fold changes of MICs [11]: 64 fold
Minimum inhibitory concentration, EKO-35 araC::acrB Pore [11, 21]: 320 µg/mL
Fold changes of MICs [12]: 2 fold
Minimum inhibitory concentration, EKO-35 araC::acrD Pore [12, 21]: 10 µg/mL
Fold changes of MICs [13]: 1 fold
Minimum inhibitory concentration ([13]; EKO-35 araC::macAB Pore, technical duplicate): 5 µg/mL
Fold changes of MICs [14]: 1 fold
Minimum inhibitory concentration ([14]; EKO-35 araC::mexCD Pore, technical duplicate): 5 µg/mL
efflux pump-mediated resistance vs EKO-35-Pore ([14]; MexCD, OM compromised): no longer associated MexCD with resistance
Fold changes of MICs [15]: 8 fold
Minimum inhibitory concentration, EKO-35 araC::mdtEF Pore [15, 21]: 40 µg/mL
Fold changes of MICs [16]: 1 fold
Minimum inhibitory concentration ([16]; EKO-35 araC::acrBD408A Pore, technical duplicate): 5 µg/mL
Fold changes of MICs [17]: 1 fold
Minimum inhibitory concentration ([17]; EKO-35 araC::mdtBC Pore, technical duplicate): 5 µg/mL
Minimum inhibitory concentration, EKO-35 araC::acrEF Pore [18, 21]: 20 µg/mL

COc1cccc2c1C(=O)c1c(O)c3c(c(O)c1C2=O)C[C@@](O)(C(=O)CO)C[C@@H]3O[C@H]1C[C@H](N)[C@H](O)[C@H](C)O1 [doxorubicin]
Fold change of MICs [1]: 1 fold
MIC ([1]; Escherichia coli, Table 13B, non-porinated, technical duplicate, read-out: Minimum Inhibitory Concentration, EKO-35 araC::acrBD408A): 1.56 µg/mL
Fold change of MICs [2]: 1 fold
MIC ([2]; Escherichia coli, Table 13B, non-porinated, technical duplicate, read-out: Minimum Inhibitory Concentration, EKO-35 araC::macAB): 1.56 µg/mL
Fold change of MICs [3]: 64 fold
MIC ([3]; Escherichia coli, Table 13A, non-porinated, technical duplicate, read-out: Minimum Inhibitory Concentration, EKO-35 araC::acrEF): 100 µg/mL
Fold change of MICs [4]: 1 fold
MIC ([4]; Escherichia coli, Table 13B, non-porinated, technical duplicate, read-out: Minimum Inhibitory Concentration, EKO-35 araC::emrKY): 1.56 µg/mL
Fold change of MICs [5]: 64 fold
MIC ([5]; Escherichia coli, Table 13A, non-porinated, technical duplicate, read-out: Minimum Inhibitory Concentration, EKO-35 araC::mdtEF): 100 µg/mL
Fold change of MICs [6]: 1 fold
MIC ([6]; Escherichia coli, Table 13B, non-porinated, technical duplicate, read-out: Minimum Inhibitory Concentration, EKO-35 araC::emrAB): 1.56 µg/mL
MIC ([7]; Escherichia coli, 18 h, read-out: Minimum inhibitory concentration, ΔtolC-Pore): 0.781 µg/mL
Minimum inhibitory concentration (MIC), Pore ΔtolC ([7]; technical duplicate): 0.781 µg/mL
MIC ([8]; Table 10, with pore, read-out: Minimum inhibitory concentration (MIC), Pore K-12): 50 µg/mL
MIC ([8]; Table 14A, porinated, read-out: Minimum inhibitory concentration, K-12 (WT)-Pore): 50 µg/mL
Fold changes of MICs [9]: 1 fold
MIC ([9]; Escherichia coli, EKO-35 araC::emrKY Pore, technical duplicate, read-out: Minimum inhibitory concentration): 0.781 µg/mL
Fold changes of MICs [10]: 1 fold
MIC ([10]; Escherichia coli, EKO-35 araC::emrAB Pore, technical duplicate, read-out: Minimum inhibitory concentration): 0.781 µg/mL
Fold changes of MICs [11]: 64 fold
Fold changes of MICs [12]: 1 fold
MIC ([12]; Escherichia coli, Table 14A, porinated, technical duplicate, read-out: Minimum inhibitory concentration, EKO-35 araC::acrD Pore): 0.781 µg/mL
Fold changes of MICs [13]: 1 fold
MIC ([13]; Escherichia coli, EKO-35 araC::macAB Pore, technical duplicate, read-out: Minimum inhibitory concentration): 0.781 µg/mL
Fold changes of MICs [14]: 4 fold
MIC ([14]; Escherichia coli, EKO-35 araC::mexCD Pore, technical duplicate, read-out: Minimum inhibitory concentration): 3.12 µg/mL
Fold changes of MICs [15]: 32 fold
MIC ([15]; Escherichia coli, Table 14A, porinated, technical duplicate, read-out: Minimum inhibitory concentration, EKO-35 araC::mdtEF Pore): 25 µg/mL
Fold changes of MICs [16]: 1 fold
MIC ([16]; Escherichia coli, EKO-35 araC::acrBD408A Pore, technical duplicate, read-out: Minimum inhibitory concentration): 0.781 µg/mL
Fold changes of MICs [17]: 4 fold
MIC ([17]; Escherichia coli, EKO-35 araC::mdtBC Pore, technical duplicate, read-out: Minimum inhibitory concentration): 3.12 µg/mL
efflux pump-mediated resistance vs EKO-35-Pore ([17]; MdtBC with the pore): associated with resistance
Fold changes of MICs ([18]; EKO-35 araC::acrEF Pore compared to EKO-35-Pore): 16 fold
MIC ([18]; Escherichia coli, Table 14A, porinated, technical duplicate, read-out: Minimum inhibitory concentration, EKO-35 araC::acrEF Pore): 12.5 µg/mL
